Where a SMILES comes first, the peptide text is derived from it. [ ]: non-standard residue; d: D form. The star is where a group is joined. NMe2Phe = CN(C)[C@@H](Cc1ccccc1)C(=O)*; Lys(Me2) = CN(C)CCCC[C@H](N)C(=O)O
Assays:
[1] = ALD evaluation, iv administration in mouse; assay type: in vivo; settings: for μg/dose (Miv), lethal dose / μmol Miv, lethal dose: iv administration in mouse; for [μM] T = 0, lethal concentration: second value of the cell (single value for D5-F), assigned to mouse iv because it fits μmol Miv; for Lethality, verification dosing / Lethality: mice; for Lethality, verification dosing: one animal previously exposed to 0.01 μM
Description: (§1) In the following description, Riv=iv administration in rat, Rim=intramuscular administration in rat, Miv=iv administration in mouse, and Mim=intramuscular administration in mouse.
(§2) Lethality data and clinical observations were collected during the ALD evalution of the peptides denoted D5-F, DP-1, DP-1m. The data presented below are complete for D5-F and DP-1.
(§3) For all three compounds, two replicates were performed with both mice and rats. In the first replicate, the animals (one animal/dose) were exposed to a range of doses, 10.0, 5.0, 2.5, 1.0, 0.5, 0.25, 0.1, 0.05, 0.025, and 0.01 μM. For the second replicate, the lethal dose was diluted to produce an intermediate dose between the lethal dose and the subsequent nonlethal dose.
Replicate 2: For D5F and DP1, the high dose was diluted to 7.5 μM for the second replicate. The doses administered were 7.5, 5.0, 1.0, 0.5, 0.25, 0.1, 0.05, 0.025, and 0.01 μM. D5F was lethal at 7.5 μM, whereas DP1 was not. DP1m was again not lethal to the mice over the treatment levels delivered.
The effects of the highest dose (lethal--D5F and DP1, nonlethal--DP1 m) were verified by dosing one animal with the effective or highest no effect concentration used in Replicate 1. In the case of D5F, the dose of 7.5 μM was used to verify lethality observed in Replicate 2. The mice treated with these compounds were previously exposed to the lowest dose 0.01 μM. The doses were the following: D5F, 7.5 μM; DP1, 10.0 μM; and DP1m, 10.0 μM.

[2] = ALD evaluation, iv administration in rat; assay type: in vivo; settings: for [μM] T = 0, lethal concentration: first value of the cell, assigned to rat iv because it fits μmol Riv; for μg/dose (Riv), lethal dose / μmol Riv, lethal dose: iv administration in rat; for Lethality, verification dosing: 10.0 μM, one naive animal
Description: as §1, §2, §3
Replicate2: For all compounds, the high dose was diluted to 7.5 μM for the second replicate. The doses administered were 7.5, 5.0, 2.5, 1.0, 0.5. 0.25, and 0.1 μM. D5F, DP1, and DP1m were lethal at 7.5 μM and were not lethal at the lower doses.
The lethality of the high dose was verified by dosing one animal with the lethal dose determined by Replicate 1. The rats used for the evaluation were remaining from the original shipment and were naive for treatment. The doses were the following: D5F, 10.0 μM; DP1, 10.0 μM; and DP1m, 10.0 μM.

[3] = ALD evaluation, intramuscular administration in rat; assay type: in vivo
Description: as §1, §2
For D5F and DP1, two replicates were performed with rats. In the first replicate, the animals (one animal/dose) were exposed to a range of doses; 10.0, 1.0, 0.1, and 0.01 μM. The dose range used was smaller than that originally planned due to the availability of the compound to prepare an adequate amount of dosing solution.

[4] = Solubility at the concentration required for im administration; assay type: physicochemical
[5] = iv, Replicate 1, lower concentrations (5.0 to 0.01 μM)
[6] = rats, iv, Replicate 1, lower concentrations
[7] = rats, iv, Replicate 2, lower doses (5.0 to 0.1 μM)

Compound	μg/dose (Miv), lethal dose [1] [μg/dose]	μmol Miv, lethal dose [1] [µmol]	[μM] T = 0, lethal concentration [1] [µM]	[μM] T = 0, lethal concentration [2] [µM]	μg/dose (Riv), lethal dose [2]	μmol Riv, lethal dose [2] [µmol]	μg/dose (Rim), lethal dose [3]	μmol Rim, lethal dose [3]	Lethality ([1]; iv, Replicate 1, 10.0 μM)	Lethality [1, 5]	Lethality, verification dosing ([2]; rats, iv)	Lethality ([2]; rats, iv, Replicate 1, 10.0 μM)	Lethality [2, 6]	Lethality ([2]; rats, iv, Replicate 2, 7.5 μM)	Lethality [2, 7]	Lethality, verification dosing ([1]; iv, 10.0 μM)	further results
CC[C@H](C)[C@H](NC(=O)[C@H](CCCCN)NC(=O)[C@H](CCCNC(=N)N)NC(=O)[C@H](C)NC(=O)[C@H](CC(C)C)NC(=O)[C@H](CCCCN)NC(=O)[C@H](CCCCN)NC(=O)[C@H](CC(C)C)NC(=O)[C@H](CCCNC(=N)N)NC(=O)[C@H](CCCNC(=N)N)NC(=O)CNC(=O)[C@@H](NC(=O)[C@H](CCCNC(=N)N)NC(=O)[C@H](CCCCN)NC(=O)[C@@H](NC(=O)[C@H](C)NC(=O)[C@H](CCCNC(=N)N)NC(=O)[C@H](CCCCN)NC(=O)[C@H](CCCNC(=N)N)NC(=O)[C@@H](N)CCCCN)C(C)C)C(C)C)C(=O)N[C@@H](C)C(=O)N[C@@H](CCCNC(=N)N)C(=O)N[C@@H](CC(C)C)C(=O)NCC(=O)N[C@H](C(=O)N[C@@H](C)C(=O)N[C@@H](Cc1ccccc1)C(=O)O)C(C)C [Peptide 13] (H-KRKRAVKRVGRRLKKLARKIARLGVAF-OH)	158.72	0.05	2.5	2.0	1,269.78 μg/dose	0.4	not lethal	not lethal									
CC[C@H](C)[C@H](NC(=O)[C@H](C)NC(=O)[C@H](CCCNC(=N)N)NC(=O)[C@H](CC(C)C)NC(=O)CNC(=O)[C@@H](NC(=O)[C@H](C)NC(=O)[C@@H](N)Cc1ccccc1)C(C)C)C(=O)N[C@@H](CCCCN)C(=O)N[C@@H](CCCNC(=N)N)C(=O)N[C@@H](C)C(=O)N[C@@H](CC(C)C)C(=O)N[C@@H](CCCCN)C(=O)N[C@@H](CCCCN)C(=O)N[C@@H](CC(C)C)C(=O)N[C@@H](CCCNC(=N)N)C(=O)N[C@@H](CCCNC(=N)N)C(=O)NCC(=O)N[C@H](C(=O)N[C@@H](CCCNC(=N)N)C(=O)N[C@@H](CCCCN)C(=O)N[C@H](C(=O)N[C@@H](C)C(=O)N[C@@H](CCCCN)C(=O)N[C@@H](CC(=O)O)C(=O)N[C@@H](CC(C)C)C(=O)O)C(C)C)C(C)C [Peptide 16] (H-FAVGLRAIKRALKKLRRGVRKVAKDL-OH)	541.62	0.15	7.5	7.5	5,416.19 μg/dose	1.5	not lethal	not lethal	lethal	No lethality	dead within four hours	lethal	No lethality	lethal	not lethal		Lethality, verification dosing ([1]; iv, 7.5 μM): dead within four hours; Lethality ([1]; iv, Replicate 2, 7.5 μM): lethal; Clinical Observations ([2]; rats, iv, 2.5 and 5.0 μM, ends of tails later sloughed off): discoloration of the tail
CC(C)C[C@H](NC(=O)[C@H](C)NC(=O)[C@H](CCCCN)NC(=O)[C@H](CCCCN)NC(=O)[C@H](CC(C)C)NC(=O)[C@H](C)NC(=O)[C@H](CCCCN)NC(=O)[C@H](CCCCN)NC(=O)[C@H](CC(C)C)NC(=O)[C@H](CCCCN)NC(=O)[C@H](CCCCN)NC(=O)[C@H](CC(C)C)NC(=O)[C@H](C)NC(=O)[C@H](CCCCN)NC(=O)[C@H](CCCCN)NC(=O)[C@H](CC(C)C)NC(=O)[C@H](C)NC(=O)[C@H](CCCCN)NC(=O)[C@H](CC(C)C)NC(=O)[C@H](C)NC(=O)[C@H](CC(C)C)NC(=O)[C@H](C)NC(=O)[C@@H](N)Cc1ccccc1)C(=O)O [Peptide 19] (H-FALALKALKKALKKLKKALKKAL-OH)	625.36	0.2	10.0	7.5	4,689.41 μg/dose	1.5	not lethal	not lethal	lethal	No lethality	dead within four hours	lethal	No lethality	lethal	not lethal	dead within four hours	
CC(C)C[C@H](NC(=O)[C@H](C)NC(=O)[C@H](CCCCN(C)C)NC(=O)[C@H](CCCCN(C)C)NC(=O)[C@H](CC(C)C)NC(=O)[C@H](C)NC(=O)[C@H](CCCCN(C)C)NC(=O)[C@H](CCCCN(C)C)NC(=O)[C@H](CC(C)C)NC(=O)[C@H](CCCCN(C)C)NC(=O)[C@H](CCCCN(C)C)NC(=O)[C@H](CC(C)C)NC(=O)[C@H](C)NC(=O)[C@H](CCCCN(C)C)NC(=O)[C@H](CCCCN(C)C)NC(=O)[C@H](CC(C)C)NC(=O)[C@H](C)NC(=O)[C@H](CCCCN(C)C)NC(=O)[C@H](CC(C)C)NC(=O)[C@H](C)NC(=O)[C@H](CC(C)C)NC(=O)[C@H](C)NC(=O)[C@H](Cc1ccccc1)N(C)C)C(=O)O [Peptide 20] (NMe2Phe-ALAL[Lys(Me2)]AL[Lys(Me2)][Lys(Me2)]AL[Lys(Me2)][Lys(Me2)]L[Lys(Me2)][Lys(Me2)]AL[Lys(Me2)][Lys(Me2)]AL-OH)	685.36	0.2	10.0	7.5	5,139.41 μg/dose	1.5	not lethal	not lethal	not lethal	No lethality	dead within four hours	lethal	No lethality	lethal	not lethal	dead within four hours	Lethality ([1]; iv, Replicate 2, over the treatment levels delivered): not lethal; Clinical Observations ([1]; mouse, iv, 10 μM, end of tail later sloughed off): discoloration of the tail; solubility [4]: poor solubility
